# Test results published in patent publication US20050244481A1, “Personal care products and methods for inhibiting the adherence of flora to skin” (Kimberly-Clark Worldwide, Inc., priority 2004, published 2005).
# Assays:
# Type in all cases: cell-based
# Pseudomonas aeruginosa [1] = experiment: Inhibition of P. aeruginosa attachment to VITRO-SKIN synthetic skin substrate (Example 2, AlamarBlue); settings: for % Attached as Compared to PBS Treatment: 3 h, RFU at 60 min, n = 3
# Method: (§1) Two days prior to the test a bacterial culture was started by inoculating 10 ml of Luria-Bertani (LB) medium with one frozen bead containing Pseudomonas aeruginosa (Dr. G. O'Toole, Dept. Microbiol. Dartmouth Medical School, Hanover, N.H.), and incubating the culture overnight at 37° C. with agitation at 125 rpm.
# (§2) One day prior to the test a 100 ml LB culture was inoculated with 100 μl of the overnight culture and grown overnight at 37° C. with agitation at 125 rpm.
# (§3) The day of the test the optical density (OD) of the overnight culture was measured at 650 nm using a Spectramax spectrophotometer (Molecular Devices, Sunnyvale, Calif.). The culture was centrifuged at 4,500×g for 10 minutes at 4° C. to pellet the bacteria. The bacteria were resuspended in phosphate buffered saline (PBS) to give a concentration of 2×10^10 cells/ml (1 OD equals 1×10^9 cells/ml). […]
# (§4) The tissues were treated with 50 μl of inulin, Tween 20 alone, or PBS alone followed immediately by 50 μl of either the bacteria cells or PBS. […] AlamarBlue™ conversion was monitored kinetically in a microfluorometer (Fluoroskan Ascent, Thermo-Labsystems, Beverly, Mass.) for 60 minutes at 37° C., with an excitation of 544 nm and emission of 590 nm.
# (§5) Results are expressed as percent bacteria adhered to the tissue relative to the PBS control. The percentage is based on the number of cells that adhered to the skin in the inulin-containing (or Tween 20-containing control) samples as compared to the number of cells that adhered to the skin in the PBS control (i.e. PBS plus bacteria cells), as determined by the AlamarBlue® levels (RFU) at 60 minutes. The percent adherence was calculated by the formula: (RFU of the sample−RFU of appropriate background control)/(average of the RFU of the PBS treatment−average RFU of PBS background control)*100.
# (§6) The results for the three wells comprising each dilution were averaged, and the percent attached as compared to the PBS control treatment was calculated.
# Pseudomonas aeruginosa [2] = experiment: Inhibition of P. aeruginosa attachment to EpiDerm skin culture (Example 3); settings: for % Attached as Compared to PBS Treatment: 37° C., 3 h, n = 2
# Method: The EpiDerm™ (MatTek, Ashland, Mass.) experiment was performed as outlined by the protocol supplied by the manufacturer for the EPI-200 EpiDerm™.
# Two days prior to the test bacterial culture was started by inoculating 10 ml of Luria-Bertani broth (LB) with one to two well isolated colonies of Pseudomonas aeruginosa (Dr. G. O'Toole, Dept. Microbiol. Dartmouth Medical School, Hanover, N.H.) and incubating the culture overnight at 37° C. with agitation at 125 rpm.
# One day prior to the test a 50 ml LB culture was inoculated with 50 μl of the overnight culture and grown overnight at 37° C. with agitation at 125 rpm. The optical density (at 650 nm) of the overnight culture was measured using a Spectramax spectrophotometer (molecular Devices, Sunnyvale, Calif.). The culture was centrifuged at 4,500×g for 10 minutes at 4° C. to pellet the bacteria. The bacteria were resuspended in phosphate buffered saline (PBS) to give a concentration of 2×10^10 cells/ml (1 OD equals 1×10^9 cells/ml).
# A 20% (w/v) stock of inulin (Jerusalem Artichoke, Sigma Chemical St Louis Mo.) was prepared by mixing 0.20 g of inulin with a sufficient amount of PBS to yield a final volume of 1 ml. […]
# For the applied dose, 50 μl of 20% inulin in PBS, 4% Tween 20 alone, or PBS alone was applied to the EpiDerm™ tissue followed immediately by 50 μl of either the bacteria cells or PBS. […] After three hours, the tissue was analyzed for the number of adhered bacteria.
# To measure adherence of P. aeruginosa to the EPIDERM™ tissue, the liquid remaining on the tissue was first transferred to a fresh microcentrifuge tube. […] Fluorescence was monitored in a microfluorometer at an excitation of 485 nm and an emission of 510 nm.
# Results are expressed as percent bacteria adhered to the tissue relative to the PBS control. […] The percent adherence was calculated by the formula: (RFU in bound fraction of the inulin or Tween 20 sample−average background RFU)/(average of the RFU in the bound fraction of the cells alone treatment−average background RFU)*100. […]
# [3] = tested on: Pseudomonas aeruginosa (ATCC # 27853); experiment: Inhibition of P. aeruginosa attachment to VITRO-SKIN synthetic skin substrate (Example 1, AlamarBlue); settings: 3 h, RFU at 120 min, n = 5
# Method: Two days prior to the test a bacterial culture was started by inoculating 10 ml Luria-Bertani (LB) (Sigma-Aldrich, St. Louis, Mo.) with one frozen bead of Pseudomonas aeruginosa (ATCC # 27853), and incubating the culture overnight at 37° C. with agitation at 125 rpm.
# One day prior to the test a 100 ml LB culture was inoculated with 100 μl of the overnight culture and grown overnight at 37° C. with agitation at 125 rpm. VITRO-SKIN® synthetic skin substrate (N19, IMS, Milford, Conn.) was cut with a #2 size boring tool and placed into the wells of a 96 well tissue culture plate (Costar #3596, Corning Inc., Corning, NY). The plates were kept in a humidity chamber overnight until use to prevent dehydration of the tissues.
# The day of the test, the optical density at 650 nm (OD) of the overnight culture was measured using a Spectramax spectrophotometer (Molecular Devices, Sunnyvale, Calif.). The culture was centrifuged at 4,500×g for 10 minutes at 4° C. (J-251 centrifuge, Beckman, Fullerton, Calif.) to pellet the bacteria. The bacteria were resuspended in phosphate buffered saline (PBS) to give a concentration of 2×10^10 cells/ml (1 OD equals 1×10^9 cells/ml).
# A 20% (w/v) solution of each inulin source (Chicory root, Dahlia tuber from Sigma-Aldrich, St. Louis, Mo.) was prepared by mixing 0.3 g inulin with PBS (Invitrogen, Carlsbad, Calif.) to a final volume of 1.5 ml. Tween 20 (Sigma-Aldrich, St. Louis, Mo.) was included as a positive control, and a 4% (v/v) stock was prepared by mixing 40 μl of Tween 20 to 960 μl PBS. The Tween 20 stock was diluted to prepare a 2% (v/v) solution of Tween 20 by mixing 800 μl of the 4% solution and 800 μl of PBS. A two fold dilution series was prepared for each inulin source as follows: • 10%: 800 μl of the 20% solution plus 800 μl of PBS • 5%: 800 μl of the 10% solution plus 800 μl of PBS • 2.5%: 800 μl of the 5% solution plus 800 μl of PBS • 1.25% 800 μl of the 2.5% solution plus 800 μl of PBS.
# All tests were run five times (n=5).
# For the applied dose, 50 μl of each inulin dilution, Tween 20 alone, or PBS alone was added to the VITRO-SKIN® discs followed immediately by 50 μl of either the bacteria cells or PBS. Samples containing 50 μl inulin dilutions and 50 μl PBS served as a background controls for the inulin samples. Samples containing 50 μl Tween 20 and 50 μl PBS served as background controls for the Tween 20 samples. Background controls for the PBS were 100 μl PBS. The plates were gently shaken at room temperature for three hours. The tissues were washed three times with 250 μl of PBS, and transferred to an opaque white 96 well plate (Costar # 3922). 200 μl of AlamarBlue™ (Trek Diagnostic Systems, Cleveland, Ohio) in LB (20 μl AlamarBlue™+180 μl LB per well) was added to each well. AlamarBlue™ conversion was monitored every 15 minutes in a microfluorometer (Fluoroskan Ascent, Thermo-Labsystems, Beverly, Mass.) for 120 minutes with an excitation of 544 nm and emission of 590 nm. In between readings the plates were covered and incubated at 37° C.
# as §5, with “(relative fluorescence units (RFU))” for “(RFU)”, “120” for “60”
# The results for the five wells for each dilution step were averaged, and the percent attached as compared to the PBS control treatment was calculated.
# Pseudomonas aeruginosa [4] = experiment: Inhibition of P. aeruginosa attachment to porcine skin (Example 2, AlamarBlue); settings: for % Attached as Compared to PBS Treatment: 3 h, RFU at 60 min, n = 3
# Method: as §1, §2, §3, §4, §5, §6
substance,measurement,setting,value
Tween 20 [reference compound],% Attached as Compared to PBS Treatment,Pseudomonas aeruginosa [1]; treatment concentration 2%,10%
same,% Attached as Compared to PBS Treatment,Pseudomonas aeruginosa [2]; treatment concentration 2%,73%
same,% Attached as Compared to PBS Treatment,[3]; treatment concentration 2%,50%
same,% Attached as Compared to PBS Treatment,Pseudomonas aeruginosa [4]; treatment concentration 2%,70%
inulin [Chicory root],% Attached as Compared to PBS Treatment,[3]; treatment concentration 1.25%,92%
same,% Attached as Compared to PBS Treatment,[3]; treatment concentration 2.5%,60%
same,% Attached as Compared to PBS Treatment,[3]; treatment concentration 5%,45%
same,% Attached as Compared to PBS Treatment,[3]; treatment concentration 10%,17%
inulin [Dahlia tuber],% Attached as Compared to PBS Treatment,[3]; treatment concentration 1.25%,86%
same,% Attached as Compared to PBS Treatment,[3]; treatment concentration 2.5%,59%
same,% Attached as Compared to PBS Treatment,[3]; treatment concentration 5%,48%
same,% Attached as Compared to PBS Treatment,[3]; treatment concentration 10%,29%
inulin [Jerusalem Artichoke],effect on attachment of P. aeruginosa to VITRO-SKIN substrate (in words),Pseudomonas aeruginosa [1],inhibited attachment
same,% Attached as Compared to PBS Treatment,Pseudomonas aeruginosa [1]; treatment concentration 10%,53%
same,effect on attachment of P. aeruginosa to EpiDerm (in words),Pseudomonas aeruginosa [2],inhibited attachment
same,% Attached as Compared to PBS Treatment,Pseudomonas aeruginosa [2]; treatment concentration 10%,57%
same,effect on attachment of P. aeruginosa to porcine skin (in words),Pseudomonas aeruginosa [4],also occurred on porcine skin
same,% Attached as Compared to PBS Treatment,Pseudomonas aeruginosa [4]; treatment concentration 10%,25%
